# Results published in PubChem BioAssay AID1963830 (Molecular Pharmacology Branch, DTP, NCI, 2024).
# Test system: 922993-354-T-J3-PDC complex spheroid viability
# Test: Anticancer human tumor 922993-354-T-J3-PDC patient-derived endometrial carcinoma cell line growth inhibition [POLQ]
# Conditions: for IC50: curve of first compound; for viability, T/C: stronger effect = lower value
# In short: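 Three-cell-type spheroids modelling solid tumor plus stroma served as the readout system; POL inhibitors were tested individually and in combination, concentration ranges set by clinical Cmax where known.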
# [1] = second compound 0.0316 µM, first compound 0.0316 µM
# [2] = second compound 0.0316 µM, first compound 0.1 µM
# [3] = second compound 0.0316 µM, first compound 0.316 µM
# [4] = second compound 0.0316 µM, first compound 1 µM
# [5] = second compound 0.0316 µM, first compound 3.16 µM
# [6] = second compound 0.0316 µM, first compound 10 µM
# [7] = second compound 0.1 µM, first compound 0.0316 µM
# [8] = second compound 0.1 µM, first compound 0.1 µM
# [9] = second compound 0.1 µM, first compound 0.316 µM
# [10] = second compound 0.1 µM, first compound 1 µM
# [11] = second compound 0.1 µM, first compound 3.16 µM
# [12] = second compound 0.1 µM, first compound 10 µM
# [13] = second compound 0.316 µM, first compound 0.0316 µM
# [14] = second compound 0.316 µM, first compound 0.1 µM
# [15] = second compound 0.316 µM, first compound 0.316 µM
# [16] = second compound 0.316 µM, first compound 1 µM
# [17] = second compound 0.316 µM, first compound 3.16 µM
# [18] = second compound 0.316 µM, first compound 10 µM
# [19] = second compound 1 µM, first compound 0.0316 µM
# [20] = second compound 1 µM, first compound 0.1 µM
# [21] = second compound 1 µM, first compound 0.316 µM
# [22] = second compound 1 µM, first compound 1 µM
# [23] = second compound 1 µM, first compound 3.16 µM
# [24] = second compound 1 µM, first compound 10 µM
# [25] = second compound 3.16 µM, first compound 0.0316 µM
# [26] = second compound 3.16 µM, first compound 0.1 µM
# [27] = second compound 3.16 µM, first compound 0.316 µM
# [28] = second compound 3.16 µM, first compound 1 µM
# [29] = second compound 3.16 µM, first compound 3.16 µM
# [30] = second compound 3.16 µM, first compound 10 µM
# [31] = second compound 10 µM, first compound 0.0316 µM
# [32] = second compound 10 µM, first compound 0.1 µM
# [33] = second compound 10 µM, first compound 0.316 µM
# [34] = second compound 10 µM, first compound 1 µM
# [35] = second compound 10 µM, first compound 3.16 µM
# [36] = second compound 10 µM, first compound 10 µM
# 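Also: spheroids exposed to the agents for one week.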
# 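For viability, T/C in this document: 100% = DMSO vehicle control wells.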
smiles,measurement,setting,value
C=CC(=O)N1CCN(c2nc(=O)n(-c3c(C)ccnc3C(C)C)c3nc(-c4c(O)cccc4F)c(F)cc23)C(C)C1 (stereo not given) + COC1C(OC(N)=O)C(O)C(Oc2ccc3c(O)c(NC(=O)c4ccc(O)c(CC=C(C)C)c4)c(=O)oc3c2C)OC1(C)C,IC50,second compound 0.0316 µM,> 10 µM
same,IC50,second compound 0.1 µM,> 10 µM
same,IC50,second compound 0.316 µM,> 10 µM
same,IC50,second compound 1 µM,> 10 µM
same,IC50,second compound 3.16 µM,> 10 µM
same,IC50,second compound 10 µM,> 10 µM
same,"viability, T/C",[1],102%
same,"viability, T/C",[2],94.8%
same,"viability, T/C",[3],98.9%
same,"viability, T/C",[4],101%
same,"viability, T/C",[5],92.8%
same,"viability, T/C",[6],84.1%
same,"viability, T/C",[7],98.9%
same,"viability, T/C",[8],107%
same,"viability, T/C",[9],93.3%
same,"viability, T/C",[10],91.4%
same,"viability, T/C",[11],88.3%
same,"viability, T/C",[12],97.6%
same,"viability, T/C",[13],102%
same,"viability, T/C",[14],101%
same,"viability, T/C",[15],103%
same,"viability, T/C",[16],96.5%
same,"viability, T/C",[17],96.2%
same,"viability, T/C",[18],99.6%
same,"viability, T/C",[19],101%
same,"viability, T/C",[20],97.5%
same,"viability, T/C",[21],97.4%
same,"viability, T/C",[22],98.6%
same,"viability, T/C",[23],93%
same,"viability, T/C",[24],104%
same,"viability, T/C",[25],102%
same,"viability, T/C",[26],94.2%
same,"viability, T/C",[27],95.9%
same,"viability, T/C",[28],92%
same,"viability, T/C",[29],97.4%
same,"viability, T/C",[30],101%
same,"viability, T/C",[31],85.8%
same,"viability, T/C",[32],88.4%
same,"viability, T/C",[33],89.8%
same,"viability, T/C",[34],85.9%
same,"viability, T/C",[35],88.3%
same,"viability, T/C",[36],85%
CC(C)n1c(=O)n(C)c2cnc3cc(F)c(-c4ccc(OCCCN5CCCCC5)nc4)cc3c21 + COC1C(OC(N)=O)C(O)C(Oc2ccc3c(O)c(NC(=O)c4ccc(O)c(CC=C(C)C)c4)c(=O)oc3c2C)OC1(C)C,IC50,second compound 0.0316 µM,> 10 µM
same,IC50,second compound 0.1 µM,> 10 µM
same,IC50,second compound 0.316 µM,> 10 µM
same,IC50,second compound 1 µM,> 10 µM
same,IC50,second compound 3.16 µM,> 10 µM
same,IC50,second compound 10 µM,> 10 µM
same,"viability, T/C",[1],111%
same,"viability, T/C",[2],90.8%
same,"viability, T/C",[3],104%
same,"viability, T/C",[4],94.8%
same,"viability, T/C",[5],84.2%
same,"viability, T/C",[6],59%
same,"viability, T/C",[7],103%
same,"viability, T/C",[8],97.2%
same,"viability, T/C",[9],104%
same,"viability, T/C",[10],91.9%
same,"viability, T/C",[11],83.3%
same,"viability, T/C",[12],63.7%
same,"viability, T/C",[13],99.2%
same,"viability, T/C",[14],104%
same,"viability, T/C",[15],94.1%
same,"viability, T/C",[16],93.5%
same,"viability, T/C",[17],84.3%
same,"viability, T/C",[18],66.5%
same,"viability, T/C",[19],88.9%
same,"viability, T/C",[20],98.3%
same,"viability, T/C",[21],100%
same,"viability, T/C",[22],91.9%
same,"viability, T/C",[23],86.9%
same,"viability, T/C",[24],70.3%
same,"viability, T/C",[25],95.9%
same,"viability, T/C",[26],104%
same,"viability, T/C",[27],85.5%
same,"viability, T/C",[28],86.2%
same,"viability, T/C",[29],85.1%
same,"viability, T/C",[30],56.7%
same,"viability, T/C",[31],81%
same,"viability, T/C",[32],77.1%
same,"viability, T/C",[33],89.6%
same,"viability, T/C",[34],74.1%
same,"viability, T/C",[35],70.2%
same,"viability, T/C",[36],63%
CCc1cc2c(N3CCc4c(cc(Cn5ccnc5)cc4-c4cn(C)nc4C(F)(F)F)C3=O)cc(C)nc2c(OC)n1 + COC1C(OC(N)=O)C(O)C(Oc2ccc3c(O)c(NC(=O)c4ccc(O)c(CC=C(C)C)c4)c(=O)oc3c2C)OC1(C)C,IC50,second compound 0.0316 µM,> 10 µM
same,IC50,second compound 0.1 µM,> 10 µM
same,IC50,second compound 0.316 µM,> 10 µM
same,IC50,second compound 1 µM,> 10 µM
same,IC50,second compound 3.16 µM,> 10 µM
same,IC50,second compound 10 µM,> 10 µM
same,"viability, T/C",[1],113%
same,"viability, T/C",[2],98.7%
same,"viability, T/C",[3],99.7%
same,"viability, T/C",[4],107%
same,"viability, T/C",[5],99.8%
same,"viability, T/C",[6],80.5%
same,"viability, T/C",[7],111%
same,"viability, T/C",[8],94.3%
same,"viability, T/C",[9],108%
same,"viability, T/C",[10],98.1%
same,"viability, T/C",[11],104%
same,"viability, T/C",[12],88.9%
same,"viability, T/C",[13],103%
same,"viability, T/C",[14],103%
same,"viability, T/C",[15],93.7%
same,"viability, T/C",[16],108%
same,"viability, T/C",[17],94.1%
same,"viability, T/C",[18],88.1%
same,"viability, T/C",[19],108%
same,"viability, T/C",[20],111%
same,"viability, T/C",[21],103%
same,"viability, T/C",[22],99.2%
same,"viability, T/C",[23],90.2%
same,"viability, T/C",[24],82.4%
same,"viability, T/C",[25],95.9%
same,"viability, T/C",[26],106%
same,"viability, T/C",[27],108%
same,"viability, T/C",[28],95%
same,"viability, T/C",[29],86.2%
same,"viability, T/C",[30],80.6%
same,"viability, T/C",[31],92.8%
same,"viability, T/C",[32],89.1%
same,"viability, T/C",[33],87.5%
same,"viability, T/C",[34],92.9%
same,"viability, T/C",[35],92.4%
same,"viability, T/C",[36],74.3%
CCc1cc2c(N3CCc4c(cc(Cn5ccnc5)cc4-c4cn(C)nc4C(F)(F)F)C3=O)ccnc2c(OC)n1 + COC1C(OC(N)=O)C(O)C(Oc2ccc3c(O)c(NC(=O)c4ccc(O)c(CC=C(C)C)c4)c(=O)oc3c2C)OC1(C)C,IC50,second compound 0.0316 µM,> 10 µM
same,IC50,second compound 0.1 µM,> 10 µM
same,IC50,second compound 0.316 µM,> 10 µM
same,IC50,second compound 1 µM,> 10 µM
same,IC50,second compound 3.16 µM,> 10 µM
same,IC50,second compound 10 µM,> 10 µM
same,"viability, T/C",[1],104%
same,"viability, T/C",[2],110%
same,"viability, T/C",[3],101%
same,"viability, T/C",[4],102%
same,"viability, T/C",[5],96.2%
same,"viability, T/C",[6],71.5%
same,"viability, T/C",[7],108%
same,"viability, T/C",[8],102%
same,"viability, T/C",[9],97.9%
same,"viability, T/C",[10],109%
same,"viability, T/C",[11],97.1%
same,"viability, T/C",[12],79.8%
same,"viability, T/C",[13],104%
same,"viability, T/C",[14],101%
same,"viability, T/C",[15],102%
same,"viability, T/C",[16],97.3%
same,"viability, T/C",[17],86.9%
same,"viability, T/C",[18],79.6%
same,"viability, T/C",[19],97.4%
same,"viability, T/C",[20],101%
same,"viability, T/C",[21],104%
same,"viability, T/C",[22],101%
same,"viability, T/C",[23],90%
same,"viability, T/C",[24],76.6%
same,"viability, T/C",[25],88.1%
same,"viability, T/C",[26],96.5%
same,"viability, T/C",[27],100%
same,"viability, T/C",[28],85.2%
same,"viability, T/C",[29],89.2%
same,"viability, T/C",[30],70.4%
same,"viability, T/C",[31],84%
same,"viability, T/C",[32],82.8%
same,"viability, T/C",[33],105%
same,"viability, T/C",[34],91%
same,"viability, T/C",[35],93.9%
same,"viability, T/C",[36],68.3%
COc1cc2cc(C(=O)CCC(=O)O)sc2cc1OC + COC1C(OC(N)=O)C(O)C(Oc2ccc3c(O)c(NC(=O)c4ccc(O)c(CC=C(C)C)c4)c(=O)oc3c2C)OC1(C)C,IC50,second compound 0.0316 µM,> 10 µM
same,IC50,second compound 0.1 µM,> 10 µM
same,IC50,second compound 0.316 µM,> 10 µM
same,IC50,second compound 1 µM,> 10 µM
same,IC50,second compound 3.16 µM,> 10 µM
same,IC50,second compound 10 µM,> 10 µM
same,"viability, T/C",[1],105%
same,"viability, T/C",[2],94.7%
same,"viability, T/C",[3],108%
same,"viability, T/C",[4],106%
same,"viability, T/C",[5],103%
same,"viability, T/C",[6],60.1%
same,"viability, T/C",[7],103%
same,"viability, T/C",[8],110%
same,"viability, T/C",[9],104%
same,"viability, T/C",[10],105%
same,"viability, T/C",[11],107%
same,"viability, T/C",[12],73.1%
same,"viability, T/C",[13],111%
same,"viability, T/C",[14],101%
same,"viability, T/C",[15],104%
same,"viability, T/C",[16],106%
same,"viability, T/C",[17],101%
same,"viability, T/C",[18],74.2%
same,"viability, T/C",[19],104%
same,"viability, T/C",[20],92.3%
same,"viability, T/C",[21],97.2%
same,"viability, T/C",[22],102%
same,"viability, T/C",[23],105%
same,"viability, T/C",[24],65.1%
same,"viability, T/C",[25],97.4%
same,"viability, T/C",[26],87.6%
same,"viability, T/C",[27],100%
same,"viability, T/C",[28],96.1%
same,"viability, T/C",[29],113%
same,"viability, T/C",[30],61.8%
same,"viability, T/C",[31],86.3%
same,"viability, T/C",[32],75.2%
same,"viability, T/C",[33],101%
same,"viability, T/C",[34],91.4%
same,"viability, T/C",[35],91.4%
same,"viability, T/C",[36],62%
